Read-outs that look alike come from different tables or passages of the source.
How the values were obtained:
N1, H5N1 = conditions: cited from earlier work
[1] = molecular target: H1N1 NA (A/PuertoRico/8/1934) (Influenza A virus, UniProt P03468); assay: biochemical
[2] = system: A/Goose/Guangdong/SH7/2013 (H5N1); assay: microbe, parasite or virus in culture; assay type: cell-based; conditions: read-out: EC50 towards influenza virus H5N1
in vitro [3] = conditions: chicken
A/PR/8/34 (H1N1) = assay: microbe, parasite or virus in culture; assay type: cell-based; conditions: read-out: EC50 towards influenza virus H1N1
[4] = system: A/Goose/Jiangsu/1306/2014 (H5N8); assay: microbe, parasite or virus in culture; assay type: cell-based; conditions: read-out: EC50 towards influenza virus H5N8
A/Wisconsin/67/05 (H3N2) = assay: microbe, parasite or virus in culture; assay type: cell-based; conditions: read-out: EC50 towards influenza virus H3N2
in vitro [5] = conditions: dog
Kunming mice = conditions: mouse, in vivo
[6] = molecular target: H5N1 NA (A/Goose/Guangdong/SH7/2013) (Influenza A virus, UniProt V5P6N1); assay type: biochemical

SMILES: CCC(CC)OC1C=C(C(=O)O)CC(NCc2ccc(-c3cccs3)cc2)C1NC(C)=O (stereo not drawn) [JMC32]
- IC50 (N1, H5N1): 0.0021 µM

SMILES: CCC(CC)O[C@@H]1C=C(C(=O)O)C[C@H](NCc2ccc(OCc3ccc([N+](=O)[O-])cc3)cc2)[C@H]1NC(C)=O [Compound 13c, (3R,4R,5S)-4-acetamido-5-((4-((4-nitrobenzyl)oxy)benzyl)amino)-3-(pentan-3-yloxy)cyclohex-1-ene-1-carboxylic acid]
- IC50 [1]: 0.5 ± 0.063 µM
- melting point: 184.1 to 187.5 °C (dec.)

SMILES: CCC(CC)O[C@@H]1C=C(C(=O)O)C[C@H](NCc2ccc(OCc3cccc(S(N)(=O)=O)c3)cc2)[C@H]1NC(C)=O [Compound 16c, (3R,4R,5S)-4-acetamido-3-(pentan-3-yloxy)-5-((4-((3-sulfamoylbenzyl)oxy)benzyl)amino)cyclohex-1-ene-1-carboxylic acid]
- IC50 [1]: 0.9 ± 0.13 µM
- melting point: 193.2 to 198.1 °C (dec.)

SMILES: CCC(CC)OC1C=C(C(=O)O)CC(NCc2ccc(Sc3ccccc3)cc2)C1NC(C)=O (stereo not drawn) [JMC21h]
- IC50 (N1, H5N1): 0.00096 µM

SMILES: CCC(CC)O[C@@H]1C=C(C(=O)O)C[C@H](NCc2ccc(OCc3ccccc3[N+](=O)[O-])cc2)[C@H]1NC(C)=O [Compound 11c, (3R,4R,5S)-4-acetamido-5-((4-((2-nitrobenzyl)oxy)benzyl)amino)-3-(pentan-3-yloxy)cyclohex-1-ene-1-carboxylic acid]
- IC50 [1]: 1.16 ± 0.11 µM
- melting point: 150.8 to 152.7 °C

SMILES: CCC(CC)O[C@@H]1C=C(C(=O)O)C[C@H](NCc2ccc(OCc3ccc(C(=O)O)cc3OC)cc2)[C@H]1NC(C)=O [Compound 9c, 4-((4-((((1S,5R,6R)-6-acetamido-3-carboxy-5-(pentan-3-yloxy)cyclohex-3-en-1-yl)amino)methyl)phenoxy)methyl)-3-methoxybenzoic acid]
- IC50 [1]: 3.21 ± 0.38 µM
- melting point: 171.2 to 175.7 °C (dec.)

SMILES: CCC(CC)O[C@@H]1C=C(C(=O)O)C[C@H](NCc2ccc(OCc3cccc(C(N)=O)c3)cc2)[C@H]1NC(C)=O [Compound 14c, (3R,4R,5S)-4-acetamido-5-((4-((3-carbamoylbenzyl)oxy)benzyl)amino)-3-(pentan-3-yloxy)cyclohex-1-ene-1-carboxylic acid]
- EC50 ([2]; Influenza A virus, H5N1, CEF): 1.18 ± 0.17 µM
- CC50 (in vitro [3]): 291 ± 17.9 µM
- EC50 (A/PR/8/34 (H1N1); Influenza A virus, MDCK): 0.21 ± 0.02 µM
- EC50 ([4]; Influenza A virus, H5N8, CEF): 2.8 ± 0.46 µM
- IC50 [1]: 0.011 ± 0.0013 µM
- EC50 (A/Wisconsin/67/05 (H3N2); Influenza A virus, H3N2, MDCK): > 100 µM
- CC50 (in vitro [5]): > 250 µM

SMILES: CC(=O)N[C@H]1[C@H]([C@H](O)[C@H](O)CO)OC(C(=O)O)=C[C@@H]1N=C(N)N [Zanamivir (ZAN), zanamivir, reference compound]
- EC50 (A/Wisconsin/67/05 (H3N2); Influenza A virus, H3N2, MDCK): 0.27 ± 0.03 µM
- CC50 (in vitro [5]): > 250 µM

SMILES: CCC(CC)O[C@@H]1C=C(C(=O)O)C[C@H](N)[C@H]1NC(C)=O [OSC, oseltamivir carboxylate, reference compound]
- EC50 [2]: 0.76 ± 0.066 µM
- CC50 (in vitro [3]): 201 ± 4.05 µM
- EC50 [4]: 2.01 ± 0.061 µM
- EC50 (A/Wisconsin/67/05 (H3N2)): 0.36 ± 0.16 µM
- CC50 (in vitro [5]): > 250 µM

SMILES: CCC(CC)O[C@@H]1C=C(C(=O)O)C[C@H](NCc2ccc(OCc3cccc([N+](=O)[O-])c3)cc2)[C@H]1NC(C)=O [Compound 12c, (3R,4R,5S)-4-acetamido-5-((4-((3-nitrobenzyl)oxy)benzyl)amino)-3-(pentan-3-yloxy)cyclohex-1-ene-1-carboxylic acid]
- IC50 [1]: 0.17 ± 0.0068 µM

SMILES: CCC(CC)O[C@@H]1C=C(C(=O)O)C[C@H](NCc2ccc(OCc3ccc(B(O)O)cc3)cc2)[C@H]1NC(C)=O [Compound 3c, (3R,4R,5S)-4-acetamido-5-((4-((4-boronobenzyl)oxy)benzyl)amino)-3-(pentan-3-yloxy)cyclohex-1-ene-1-carboxylic acid]
- EC50 ([2]; Influenza A virus, H5N1, CEF): 3.2 ± 0.44 µM
- CC50 (in vitro [3]): 289 ± 15.8 µM
- EC50 (A/PR/8/34 (H1N1); Influenza A virus, MDCK): 0.02 ± 0.01 µM
- EC50 ([4]; Influenza A virus, H5N8, CEF): 2.51 ± 0.23 µM
- IC50 [1]: 0.045 ± 0.0067 µM
- EC50 (A/Wisconsin/67/05 (H3N2); Influenza A virus, H3N2, MDCK): 3.08 ± 0.59 µM
- CC50 (in vitro [5]): > 250 µM
- melting point: 168.3 to 172.1 °C (dec.)

SMILES: CCC(CC)OC1C=C(C(=O)O)CC(NCc2ccc(Sc3cccs3)cc2)C1NC(C)=O (stereo not drawn) [JMC21g]
- IC50 (N1, H5N1): 0.00383 µM

SMILES: CCC(CC)O[C@@H]1C=C(C(=O)O)C[C@H](NCc2ccc(OCc3ccc(C(N)=O)cc3)cc2)[C@H]1NC(C)=O [Compound 15c, (3R,4R,5S)-4-acetamido-5-((4-((4-carbamoylbenzyl)oxy)benzyl)amino)-3-(pentan-3-yloxy)cyclohex-1-ene-1-carboxylic acid]
- IC50 [1]: 1.73 ± 0.29 µM

SMILES: CCC(CC)O[C@@H]1C=C(C(=O)O)C[C@H](NCc2ccc(OCc3cccc(B(O)O)c3)cc2)[C@H]1NC(C)=O [Compound 2c, (3R,4R,5S)-4-acetamido-5-((4-((3-boronobenzyl)oxy)benzyl)amino)-3-(pentan-3-yloxy)cyclohex-1-ene-1-carboxylic acid]
- EC50 ([2]; Influenza A virus, H5N1, CEF): 0.69 ± 0.091 µM
- CC50 (in vitro [3]): 143 ± 9.56 µM
- EC50 (A/PR/8/34 (H1N1); Influenza A virus, MDCK): 0.03 ± 0.03 µM
- behavior abnormalities (lethargy, clonic convulsions, anorexia, ruffled fur) (Kunming mice): no significant behavior abnormalities
- body weight (Kunming mice): increased gradually
- death (Kunming mice): no death occurred
- acute toxicity (Kunming mice; 1000 mg/kg): no acute toxicity
- EC50 ([4]; Influenza A virus, H5N8, CEF): 1.57 ± 0.21 µM
- IC50 [1]: 0.06 ± 0.007 µM
- EC50 (A/Wisconsin/67/05 (H3N2); Influenza A virus, H3N2, MDCK): 11.1 ± 1.15 µM
- CC50 (in vitro [5]): > 250 µM
- fold lower potency than OSC against H5N1 in the enzymatic assay [6]: 3.9 fold

SMILES: CCC(CC)O[C@@H]1C=C(C(=O)O)C[C@H](NCc2ccc(OCc3ccc(C(=O)O)cc3Cl)cc2)[C@H]1NC(C)=O [Compound 8c, 4-((4-((((1S,5R,6R)-6-acetamido-3-carboxy-5-(pentan-3-yloxy)cyclohex-3-en-1-yl)amino)methyl)phenoxy)methyl)-3-chlorobenzoic acid]
- IC50 [1]: 0.25 ± 0.031 µM
- melting point: 189.3 to 192.1 °C (dec.)

SMILES: CCC(CC)O[C@@H]1C=C(C(=O)O)C[C@H](NCc2ccc(OCc3ccc(S(N)(=O)=O)cc3)cc2)[C@H]1NC(C)=O [Compound 17c, (3R,4R,5S)-4-acetamido-3-(pentan-3-yloxy)-5-((4-((4-sulfamoylbenzyl)oxy)benzyl)amino)cyclohex-1-ene-1-carboxylic acid]
- IC50 [1]: 0.027 ± 0.0048 µM

SMILES: CCC(CC)O[C@@H]1C=C(C(=O)O)C[C@H](NCc2ccc(OCc3cc(C(=O)O)ccc3OC)cc2)[C@H]1NC(C)=O [Compound 7c, 3-((4-((((1S,5R,6R)-6-acetamido-3-carboxy-5-(pentan-3-yloxy)cyclohex-3-en-1-yl)amino)methyl)phenoxy)methyl)-4-methoxybenzoic acid]
- IC50 [1]: 14 ± 0.93 µM

SMILES: CCC(CC)O[C@@H]1C=C(C(=O)O)C[C@H](NCc2ccc(OCc3ccc(C(=O)O)cc3)cc2)[C@H]1NC(C)=O [Compound 6c, 4-((4-((((1S,5R,6R)-6-acetamido-3-carboxy-5-(pentan-3-yloxy)cyclohex-3-en-1-yl)amino)methyl)phenoxy)methyl)benzoic acid]
- IC50 [1]: 0.6 ± 0.13 µM
- melting point: 193.3 to 195.5 °C (dec.)

SMILES: CCC(CC)O[C@@H]1C=C(C(=O)O)C[C@H](NCc2ccc(OCc3ccc(S(=O)(=O)O)cc3)cc2)[C@H]1NC(C)=O [Compound 18c, (3R,4R,5S)-4-acetamido-3-(pentan-3-yloxy)-5-((4-((4-sulfobenzyl)oxy)benzyl)amino)cyclohex-1-ene-1-carboxylic acid]
- IC50 [1]: 1.64 ± 0.12 µM
- melting point: 244.5 to 248.7 °C (dec.)

SMILES: CCC(CC)O[C@@H]1C=C(C(=O)O)C[C@H](NCc2ccc(OCc3ccccc3C(=O)O)cc2)[C@H]1NC(C)=O [Compound 4c, 2-((4-((((1S,5R,6R)-6-acetamido-3-carboxy-5-(pentan-3-yloxy)cyclohex-3-en-1-yl)amino)methyl)phenoxy)methyl)benzoic acid]
- IC50 [1]: 15 ± 0.88 µM
- melting point: 177.1 to 178.9 °C

SMILES: CCC(CC)O[C@@H]1C=C(C(=O)O)C[C@H](NCc2ccc(OCc3cccc(C(=O)O)c3)cc2)[C@H]1NC(C)=O [Compound 5c, 3-((4-((((1S,5R,6R)-6-acetamido-3-carboxy-5-(pentan-3-yloxy)cyclohex-3-en-1-yl)amino)methyl)phenoxy)methyl)benzoic acid]
- IC50 [1]: 0.39 ± 0.04 µM

SMILES: CCC(CC)O[C@@H]1C=C(C(=O)O)C[C@H](NCc2ccc3sc4ccccc4c3c2)[C@H]1NC(C)=O [JMC23d]
- IC50 (N1, H5N1): 0.00027 µM

SMILES: CCC(CC)O[C@@H]1C=C(C(=O)O)C[C@H](NCc2ccc(OCc3ccc(C(=O)O)c(OC)c3)cc2)[C@H]1NC(C)=O [Compound 10c, 4-((4-((((1S,5R,6R)-6-acetamido-3-carboxy-5-(pentan-3-yloxy)cyclohex-3-en-1-yl)amino)methyl)phenoxy)methyl)-2-methoxybenzoic acid]
- IC50 [1]: 3.59 ± 0.025 µM
- melting point: 190.5 to 195.1 °C (dec.)

SMILES: CCC(CC)OC1C=C(C(=O)O)CC(NCc2ccc(-c3ccccc3)cc2)C1NC(C)=O (stereo not drawn) [JMC20I]
- IC50 (N1, H5N1): 0.0019 µM

SMILES: CCC(CC)O[C@@H]1C=C(C(=O)O)C[C@H](NCc2ccc(OCc3ccccc3B(O)O)cc2)[C@H]1NC(C)=O [Compound 1c, (3R,4R,5S)-4-acetamido-5-((4-((2-boronobenzyl)oxy)benzyl)amino)-3-(pentan-3-yloxy)cyclohex-1-ene-1-carboxylic acid]
- IC50 [1]: 0.69 ± 0.13 µM
- melting point: 146.3 to 150.5 °C (dec.)
